The results in this text go back to article PMC6155239, “Targeting PFKFB3 radiosensitizes cancer cells and suppresses homologous recombination” (Nature Communications, 2018).

The target of test [1] is PFKFB3 (Homo sapiens, UniProt Q16875). Kind of test: ADP-Glo kinase activity assay, PFKFB3. Conditions: in vitro enzymatic assay. The format is biochemical. On the procedure: The kinase activity of the bi-functional enzyme was quantified based on the production of ADP and F-2,6-P2 from ATP by ADP-GloTM Kinase Assay (Promega). The assay was performed in two steps; first, after the kinase reaction, an equal volume of ADP-GloTM Reagent was added to terminate the kinase reaction and deplete the remaining ATP. Second, the Kinase Detection Reagent was added to simultaneously convert ADP to ATP and allow the newly synthesized ATP to be measured using a luciferase/luciferin reaction. The light generated was measured using a luminescence counter (1450 MicroBeta TriLux). The assay was performed in white 384-well plates (OptiPlate, 6007299, PerkinElmer) by consecutive additions of a test compound solution (0.1 µL, serial diluted in DMSO from compound DMSO stock solution and dispensed by acoustic dispensing from UV-star 384-well plate 7360153, VWR), enzyme solution (5 µL) and substrate (fructose-6-phosphate (F6P) and adenosine-5′-triphosphate (ATP)) containing solution (5 µL). […] Four reference dose–response curves, one of them being the QC compound, were included and serial diluted as the test compounds. The final concentrations of all reagents per well were 50 mM Tris–HCl at pH 8.0, 10 mM MgCl2, 5 mM NaPi at pH 8.0, 81.48 nM PFKFB3 or 145 nM PFKFB4, 8 µM ATP, 100 µM F6P (acid treated and then neutralized to remove any contaminating F-2,6-P2[34]), 0.005% Tween-20 and 1 mM dithiothreitol. Enzyme, compounds, and controls were pre-incubated at room temperature for 15 min before the addition of substrate solution. The enzymatic reaction was allowed to proceed for 20 min and the reaction was terminated by the addition of ADP-GloTM Reagent (10 µL) to all wells followed by 40 min incubation at room temperature. […] The inhibitory potency or IC50 values of test compounds on the kinase activity of the enzymes were calculated using a four-parameter model (model 205) in XLfit (IDBS ActivityBase XE Runner).
Chain of PFKFB3 (Q16875 whole entry): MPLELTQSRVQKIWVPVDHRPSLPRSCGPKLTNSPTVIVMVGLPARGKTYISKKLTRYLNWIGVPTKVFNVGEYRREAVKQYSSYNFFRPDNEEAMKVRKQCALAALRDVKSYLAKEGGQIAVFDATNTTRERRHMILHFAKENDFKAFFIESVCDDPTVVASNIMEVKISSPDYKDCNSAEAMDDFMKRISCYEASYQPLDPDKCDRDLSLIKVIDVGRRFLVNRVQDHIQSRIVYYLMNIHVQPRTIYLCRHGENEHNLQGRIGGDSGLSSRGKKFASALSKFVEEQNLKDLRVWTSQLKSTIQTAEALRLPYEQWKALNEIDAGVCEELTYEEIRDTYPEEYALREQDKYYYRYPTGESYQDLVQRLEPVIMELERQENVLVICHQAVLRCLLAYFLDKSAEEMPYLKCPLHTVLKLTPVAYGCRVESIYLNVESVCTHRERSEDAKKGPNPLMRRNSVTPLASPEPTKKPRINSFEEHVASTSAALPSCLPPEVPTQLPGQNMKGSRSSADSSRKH
For orientation: In ADP-Glo the light output rises with the ADP produced.

In test [2] the test system is U2OS cells. Kind of test: Cell cycle analysis (propidium iodide, flow cytometry). It counts as cell-based. The note with it: 24 h post-IR. On the procedure: For cell cycle analysis, cells were treated or transfected with siRNA as described and harvested at the indicated time points with trypsin. For studies using IR, cells were exposed to IR with 2 Gy, and harvested at the indicated time points with trypsin. The cells were washed in PBS and fixed with 70% ethanol in PBS at 4 °C for 1 h and then stored at −20 °C until staining. Ethanol was removed by centrifugation and cells were then washed in PBS before staining DNA with propidium iodide (PI) solution containing 40 μg/mL PI, 100 μg/mL RNase A, and 0.1% Triton X-100 (Sigma Aldrich). Cells were analyzed by flow cytometry on a FACS Navios (Beckman Coulter) using Kaluza software.
In general terms: A flow cytometer gives signals particle by particle.

Test [3] relates to U2OS DR-GFP cells. The test is described as follows: DR-GFP (HR) assay. It counts as cell-based. Here is the method:
5 × 10^4 U2OS (DR-GFP) cells were seeded into 12-well plates, 24 h later cells were treated with the indicated siRNAs or inhibitors and, 24 h later, transfected with 150 ng of an I-SceI vector using JetPEI or JetPRIME (Polyplus transfections). The next day, the medium was changed; 24 h after this, cells were harvested by trypsinization and washed with PBS, and the GFP signal was measured by flow cytometry on a FACS Navios (as described above). The frequency of repair in cells treated with inhibitors or transfected with the various siRNAs was calculated relative to cells treated with DMSO or transfected with control siRNA.

Test [4] concerns U2OS cells. Kind of test: IR-induced RAD51 / RPA32 foci, confocal. It counts as cell-based. The note with it: in combination with IR. Here is the method: (§1) Cells were grown on sterilized coverslips and fixed with 4% paraformaldehyde (PFA) (Santa Cruz) and 2% sucrose (Sigma Aldrich) for 15 min at room temperature. They were then permeabilized with 0.2% NP-40 (Thermo Scientific) for 10 min at room temperature followed by 30 min of blocking in blocking buffer (2 or 3% BSA, 5% glycerol, 0.1% Tween 20 (Sigma Aldrich)). Coverslips were subsequently incubated for 1, 2, or 24 h in primary antibody and 40 min in secondary antibody diluted in blocking buffer, DNA was stained with DAPI for 10 min. The coverslips were mounted with Prolonged Gold mounting medium (Invitrogen). Images were acquired with a Zeiss LSM 780 microscope using a 40× or 63× oil immersion lens and processed in ImageJ and CellProfiler.
To visualize PFKFB3, RPA32, RAD51, BRCA1, 53BP1, and RRM2 IRIF, the cells were first washed with PBS and then incubated for 5 min at room temperature with cytoskeleton (CSK) buffer containing 10 mM PIPES pH 7.0 (Sigma Aldrich), 100 mM NaCl (EMD Millipore), 300 mM sucrose (Sigma Aldrich), 3 mM MgCl2 (Sigma Aldrich), and 0.7% Triton X-100 (Sigma Aldrich). After these treatments, the cells were washed once again with PBS and then fixed in 4% PFA with 2% sucrose.

The subject of test [5] is U2OS cells. The test is described as follows: IR-induced nuclear recruitment of PFKFB3. The note with it: 2 h prior to IR. It counts as cell-based. Here is the method:
as §1

The test system of test [6] is U2OS cells. The test is described as follows: IR-induced Mre11 / Nbs1 foci formation. The format is cell-based. Conditions: treatment prior to IR (6 Gy, 2 h recovery). Here is the method: as §1

Structures are written as SMILES. Entries after “also recorded” stand apart in the source; their conditions may differ.

Take `O=C(C=Cc1cccnc1)c1ccncc1` [3-PO, 3-(3-pyridinyl)-1-(4-pyridinyl)-2-propen-1-one, reference compound]: in test [1], the “inhibition of recombinant PFKFB3 kinase activity (in words)” value is listed as “could not achieve an IC50 value”. Further, the “accumulation of cells in G2/M phase upon IR (in words)” value in test [2] is recorded as “not seen”. The “effect on HR activity (in words)” value in test [3] is listed as “did not decrease HR activity; also recorded: without affecting HR activity”. Moreover, in test [4], the “IR-induced recruitment of RPA32 and RAD51 into repair foci (in words)” value is “unaffected”.

In the case of `N=C1NC(=O)/C(=C/c2ccc(O)cc2)S1` [Mirin, reference compound], the “IR-induced recruitment of PFKFB3 (in words)” value in test [5] is given as “blocked”. Further, in test [6], the “IR-induced Mre11 or Nbs1 foci formation (in words)” value is listed as “completely blocked”.
